Measured values: patent US7709443B2, “Cyclic peptide antitumor agents” (Northwestern University, priority 2003, dated 2010)
In brackets after ≈: the same amount, converted by molar mass. Like-named read-outs stand apart in the source and are kept apart here. Square brackets hold non-standard residues; d marks the D form. Peptide text beside a SMILES is read from it. NMePhe(4-Br) = CN[C@@H](Cc1ccc(Br)cc1)C(=O)O; Phe(4-Br) = N[C@@H](Cc1ccc(Br)cc1)C(=O)O; Hica(2S) = CC(C)C[C@H](O)C(=O)O; NMeL = CN[C@@H](CC(C)C)C(=O)O

How the values were obtained:
[1] = system: National Cancer Institute's 60 cell-line panel; conditions: mean over panel; cited from earlier work
[2] = system: HCT-116 (human colon carcinoma); experiment: cells; conditions: HCT-116 bioassay, Table 1
From the text: The HCT-116 human colon adenocarcinoma screen is a tissue culture first line assay to detect inherent cytotoxicity against malignant cancer cells. This strain is considered to be an “indicator strain” by many for the selection of inhibitors that target solid tumors. The assay is a calorimetric endpoint assay which can be produced in 96-well format trays. Data are acquired by plate reader and dose response curves are produced by computer analysis. […] This assay is run routinely as described below and would be understood in the art.
1. Media (1000 mL McCoy's 5A Medium, 114 mL Fetal Bovine Serum, 25 mL Hepes buffer solution (IM), 12.5 mL Penicillin-Streptomycin solution)
2. Cell line (HCT-116, human colon cancer cell line)
3. Indicator (MTS and PMS in DPBS)
5. Standard anticancer drug (etoposide (VP-16); stock is 4 mg/mL in DMSO
6. DPBS (without CaCl2 and MgCl2)
1. Remove medium from the cells and rinse with 10 mL sterile DPBS.
3. Allow to stand in hood for 1 minute.
4. Remove trypsin with sterile pipette.
5. Allow flask to stand in hood for 2-5 minutes.
6. Add 10 mL of media to flask and pipette up and down to gently break up cell clumps.
7. Count the number of cells using a hemacytometer.
8. Determine # of plates needed, and total volume of cell suspension (16 or 18 mL per plate).
9. Dilute cells to a final concentration of 2.5×10^4 cells/mL in a sterile flask.
10. Pour cell suspension into a sterile trough.
For Serial Dilution Plates
1. Add 175 μL to each well in the first row of a 96 well plate.
2. Add 150 μL to the rest of the wells in A1-A10 & A12.
3. In row 11 add 150 μL cell suspension to the first 6 wells and only media to the last two.
For Single Concentration Plates
1. Add 150 μL of sterile media to G11 & H11.
2. Add 150 μL of cell suspension to all other wells.
3. Add 25 μL more to well H1.
Incubate plates overnight at 37° C. & 5% CO2
1. Add 25 μL of test compounds @ 10 mg/mL to A1-A10, 25 μL of DMSO to A11 & 25 μL of etoposide (4 mg/mL) to A12.
2. Using a twelve channel pipette, mix well then remove 50 μL from the first row and transfer to the next row, repeat down the plate until row F, then remove tip # 11 and continue down plate discarding the last 50 μL.
3. Incubate plates for 72 h.
1. Add 20 μL of MTS/PMS solution to each well.
3. Read plates @490 nm on plate reader.

[3] = system: WM115 (Melanoma) human cancer cell line; conditions: three days
Method: (§5) Cells were plated at 5,000 cells per well in 24-well plates, treated for three days, then counted. Cell number was normalized to the number of cells in untreated control (DMSO) cells, also after three days.

[4] = system: HCT-116 (human colon carcinoma); conditions: as found for the natural product; cited from earlier work
topoisomerase I = conditions: mechanism study in molluscum contagiosum virus; cited from earlier work
[5] = system: MDA-MB231 (Breast) human cancer cell line; conditions: three days
Method: as §5

[6] = system: PC-3 (Prostate) human cancer cell line; conditions: three days
Method: as §5

[7] = system: S2013 human pancreatic cancer cells; experiment: Cell cycle analysis by flow cytometry, S2013; type: cell-based; conditions: S2013, 10 μM, 24 hours
Method: (§1) Cell Cycle Analysis by Flow Cytometry. AsPC-1 and S2013 human pancreatic cancer cells were cultured in T75 flasks with media containing 10% FBS. After reaching 50-60% confluence, the cells were serum-starved for 24 hours, and then treated with 10 μM of cyclic peptide 1k for 24 hours. At the end of the treatment, the cells were harvested with trypsin-EDTA solution to produce single cell suspension. The cells were then centrifuged at 1000×g for 10 minutes. The pellets were washed twice with ice-cold phosphate buffer saline (PBS), and re-suspended in 0.5 ml PBS. 5 ml of ice-cold 70% ethanol was added to each cell suspension and incubated for 12 hours at 4° C. The cells fixed in ethanol were centrifuged at 1000×g for 10 minutes and the subsequent pellets were washed with ice-cold PBS twice. The final cell pellets were reconstituted in the 1 ml Telford reagent and horizontally shaken for 1 hour in the dark at room temperature. The red fluorescence of the single events was recorded using a laser beam at 488 nm excitation 8 and 610 nm as emission 8 to measure the DNA index. Experiments were repeated three times.

AsPC-1 cells [8] = experiment: Cell proliferation assay (Guava ViaCount cell number), AsPC-1; type: cell-based, human; conditions: AsPC-1, 10 μM, 72 hours, vs vehicle (DMSO)
Method: (§2) Given the results of the preceding example, several compounds of this invention were tested against human pancreatic cancer cell lines. Two cancer cell lines were selected: S2-013 (well-differentiated) and AsPC-1 (poorly differentiated). These cell lines were purchased from American Type Culture Collection (Manassas, Va.). Both cell lines were grown in DMEM and plated as monolayers in the medium supplemented with 10% fetal bovine serum in a humidified atmosphere of […] and 5% CO2 at 37° C. The cells were regularly seeded into 75 cm^2 flasks with media changes every second or third day. For experiments, cells were grown to 70% confluence, digested with trypsin-EDTA, and plated in either 6-, 24-, or 48-well plates.
(§3) Cell Proliferation Assay. Cells were regularly seeded into three 6-well plates and incubated at 37° C. for 24 hours. Cells were then cultured in serum-free medium for another 24 hours and treated in fresh serum-free medium with or without 10 μM of cyclic peptide 1k for 24, 48, and 72 hours. At the end of each time period, the cells were trypsinized to produce a single cell suspension, and the cell number in each well was determined using Guava Technologies=ViaCount Assay (Guava Technologies Inc, Hayward, Calif.).
(§4) Statistical Analysis. Data were analyzed by ANOVA with Dunnett's or Bonferoni's corrections for multiple comparisons, as appropriate. This analysis was performed with the Prism software package (GraphPad, San Diego, Calif.). Data were expressed as mean±SEM.

[9] = system: AsPC-1 human pancreatic cancer cells; experiment: DNA synthesis by [methyl-3H] thymidine incorporation, AsPC-1; type: cell-based; conditions: AsPC-1, 24 hours, FIG. 6
Method: as §2
DNA Synthesis by [methyl-^3H] Thymidine Incorporation. Cells were plated in 24-well plates at a concentration of 50,000 cells/well. […] Radioactivity, indicating incorporation of ^3H-methyl thymidine into DNA, was measured by adding scintillation cocktail and counting on a scintillation counter (LKB RackBeta; Wallac, Turku, Finland).
Statistical Analysis. Data were analyzed by ANOVA with Dunnett's or Bonferoni's corrections for multiple comparisons, as appropriate. […] Data were expressed as mean±SEM.

AsPC-1 cells [10] = experiment: Morphological changes using light microscopy, AsPC-1; type: cell-based, human; conditions: AsPC-1, 24 hours, 0.1-100 μM tested
Method: as §2
Morphological Changes Using Light Microscopy. AsPC-1 and S2-013 cells plated in 24-well plates were treated with varying concentrations (0.1-100 μM) of cyclic peptide 1k for 24 hours. Cells were then viewed using light microscopy, and digital images were taken with a Kodak DC120 zoom digital camera (Eastman Kodak Co., Rochester, N.Y.).

[11] = system: AsPC-1 human pancreatic cancer cells; experiment: Cell cycle analysis by flow cytometry, AsPC-1; type: cell-based; conditions: AsPC-1, 10 μM, 24 hours
Method: as §1

S2-013 cell line = experiment: Cell proliferation assay (Guava ViaCount cell number), S2-013; type: cell-based, human; conditions: S2-013, 10 μM, 72 hours, vs vehicle (DMSO)
Method: as §2, §3, §4

[12] = system: Caspase-3 activity in PC-3 cells; experiment: Caspase-3 activity, fluorometric assay; type: cell-based, human; conditions: relative to DMSO and staurosporin controls
Method: Caspase-3 is a mediator of apoptosis, and induction of Caspase-3 activity indicates induction of apoptosis. Activity of Caspase-3 was measured by a fluorometric assay, as described in the literature, referenced above.

PC-3 cells = experiment: Annexin V binding, induction of apoptosis; type: cell-based, human; conditions: after 72 hours
From the text: The ability of the compounds in this invention to induce apoptosis was also studied, based on a methodology previously reported in the literature. (See, Soff et al. Cancer Res., 63:4275-4289, 2003.) As understood by those skilled in the art, the ability of Annexin V to bind two cells is related to altered phospholipids on a cell surface, induced by apoptosis. As such, increased Annexin V binding indicates induction of apoptosis.

Compound | Fold Induction Over DMSO control ([3]; WM115, 1 μM) | Fold Induction Over DMSO control ([3]; WM115, 10 μM) | Fold Induction Over DMSO control ([5]; MDA-MB231, 1 μM) | Fold Induction Over DMSO control ([5]; MDA-MB231, 10 μM) | Fold Induction Over DMSO control ([6]; PC-3, 1 μM) | Fold Induction Over DMSO control ([6]; PC-3, 10 μM) | change in number of cells (AsPC-1 cells [8]) | change in number of cells (S2-013 cell line) | further results
CC(C)C[C@@H]1NC(=O)[C@H](C(C)C)NC(=O)[C@H](CC(C)C)OC(=O)[C@H](CC(C)C)NC(=O)[C@H](Cc2ccccc2)NC1=O [Sansalvamide A, reference compound] (cyclo(FL[Hica(2S)]VL)) | 0.98 | 0.02 | 0.90 | 0.09 | 0.95 | 0.22 |  |  | mean IC50 against NCI 60 cell-line panel [1]: 27.4 µg/mL; IC50 [2]: 9.8 µg/mL (≈ 16.7 µM); in vitro value toward HCT-116 colon carcinoma [4]: 9.8 µg/mL; inhibition of topoisomerase I (topoisomerase I): inhibitor of topoisomerase I
CC(C)C[C@@H]1NC(=O)[C@H](CC(C)C)NC(=O)[C@H](Cc2ccc(Br)cc2)N(C)C(=O)[C@H](CC(C)C)NC(=O)[C@H](C(C)C)NC1=O [Compound 1k] (cyclo([NMePhe(4-Br)]LLVL)) | 1.05 | 0.13 | 3.17 | 0.41 | 0.95 | 0.66 | significant (p<0.05) decrease | significant (p<0.05) decrease | S phase fraction [7]: marked decrease; cell cycle effect [7]: G0/G1 phase cell cycle arrest; subG1 fraction of apoptotic cells [7]: increase; concentration-dependent effect on thymidine incorporation [9]: concentration-dependent inhibition; compound concentration giving obvious morphological changes (AsPC-1 cells [10]): ≥ 10 μM; S phase fraction [11]: marked decrease; cell cycle effect [11]: G0/G1 phase cell cycle arrest; subG1 fraction of apoptotic cells [11]: increase
CC(C)C[C@@H]1NC(=O)[C@H](Cc2ccc(Br)cc2)NC(=O)[C@H](CC(C)C)N(C)C(=O)[C@H](C(C)C)NC(=O)[C@H](CC(C)C)NC1=O [Compound 1i] (cyclo([Phe(4-Br)]LLV[NMeL])) | 1.44 |  | 0.96 |  | 0.85 |  | significant (p<0.05) decrease | significant (p<0.05) decrease | Caspase-3 activity [12]: induced; induction of apoptosis (Annexin V binding) (PC-3 cells): induction of apoptosis was observed
